{"source": "patent US20150111852A1", "about": "“1-Di(sec-butyl)-phosphinoyl-pentane (dapa-2-5) as a topical agent” (priority 2013, published 2015)", "key": {"[1]": {"tested_on": "Strains TA 98 and TA100", "assay": "Ames test", "type": "cell-based", "conditions": "Strains TA 98 and TA100, with and without liver activation", "protocol": "Preliminary toxicological studies were conducted on DAPA-2-5 and DAPA-2-7."}, "[2]": {"assay": "Repeated-dose toxicity in male rats (organ weights, histology)", "type": "in vivo, rat", "protocol": "DAPA-2-7, dissolved in 3% ethanol/97% 1,2-propanediol, or vehicle alone, was administered subcutaneously to male rats (N=8 per group) at 30 mg/kg body weight daily for 7 days, and on the 8th day, the animals were euthanized with sodium pentobarbital and the major organs (body, heart, liver, lungs, kidney, testes, brain) were removed and weighed. Heart tissues (ventricle and heart valves) and liver samples were stained with hematoxylin and eosin and the histology examined.\nIn a large scale trial, DAPA-2-5 was administered via drinking water to male rats for 40 days. The DAPA-2-5 was mixed with condensed milk [8.5%] at 0.5 mg/mL and liquid consumption was monitored. The averaged intake in the treated group [N=12 rats] was 41 mg/kg body weight/day for 40 days. The vehicle alone group was N=11."}, "[3]": {"assay": "HPLC content of DAPA-2-5 recovered from disintegrated prototype tablets", "type": "physicochemical", "protocol": "A high pressure liquid chromatography [HPLC] method was developed for analysis of DAPA-2-5 in aqueous solution. The chromatographic conditions were: Column: Waters XTerra RP18, 150×4.6 mm, 3.5 μm, Column temperature: 40° C., Mobile phase : 0.1% Tetrabutyl ammonium and Tri fluro acetic acid in 900mL water and 100 mL Acetonitrile, Flow: 1.0 mUmin, Diluent : Water, Wavelength: 226 nm, Injection Volume: 100 μL, Run time: 10 min, Standard Preparation: 0.75 mg/mL of DAPA-2-5 in water. Sample Preparation: Equivalent to 0.75 mg/mL of DAPA-2-5 in water. Prototype tablets containing DAPA-2-5 were disintegrated and the content of DAPA-2-5 measured. […] It is likely that the non-eluted DAPA-2-5 remains tightly bound to sites on the Neusilin US2."}, "[4]": {"target": "T1, TRPV1 channels (human TRPV1 gene expressed in HEK293 cells) (Homo sapiens, UniProt Q8NER1)", "T1 construct": "expressed in transfected cells; host or cells: HEK293 cells", "T1 sequence (Q8NER1 whole entry)": "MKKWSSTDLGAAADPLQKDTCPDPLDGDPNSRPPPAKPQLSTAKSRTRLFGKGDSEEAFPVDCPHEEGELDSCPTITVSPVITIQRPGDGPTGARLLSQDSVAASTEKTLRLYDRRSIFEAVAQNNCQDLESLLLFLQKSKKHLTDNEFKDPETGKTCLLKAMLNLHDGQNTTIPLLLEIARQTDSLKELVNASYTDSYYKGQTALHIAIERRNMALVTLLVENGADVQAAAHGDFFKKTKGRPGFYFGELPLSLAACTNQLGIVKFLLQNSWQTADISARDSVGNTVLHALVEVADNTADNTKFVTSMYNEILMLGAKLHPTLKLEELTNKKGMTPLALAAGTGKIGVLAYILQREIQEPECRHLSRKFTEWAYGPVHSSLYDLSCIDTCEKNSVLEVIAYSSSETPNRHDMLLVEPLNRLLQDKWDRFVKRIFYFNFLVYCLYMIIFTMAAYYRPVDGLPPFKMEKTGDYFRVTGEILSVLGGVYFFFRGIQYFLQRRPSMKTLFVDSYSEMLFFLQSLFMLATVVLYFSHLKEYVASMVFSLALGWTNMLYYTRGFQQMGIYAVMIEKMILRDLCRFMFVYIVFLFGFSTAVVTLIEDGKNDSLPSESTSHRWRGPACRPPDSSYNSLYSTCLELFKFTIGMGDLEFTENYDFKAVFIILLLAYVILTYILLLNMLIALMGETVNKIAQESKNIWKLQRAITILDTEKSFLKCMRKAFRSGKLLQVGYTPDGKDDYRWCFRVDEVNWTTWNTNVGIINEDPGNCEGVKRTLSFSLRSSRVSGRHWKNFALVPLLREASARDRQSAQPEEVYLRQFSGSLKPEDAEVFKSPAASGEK", "assay": "TRPV1 agonist assay", "type": "cell-based", "protocol": "To examine the specificity of the test compounds, further studies were conducted on TRPV1 channels (human TRPV1 gene expressed in HEK293 cells) and TRPA1 channels (human TRPA1 gene expressed in CHO cells). The test cells were Chinese Hamster Ovary (CHO) cells or Human Embyronic Kidney (HEK) 293 cells transfected with human TRPV1 or TRPA1 cDNAs."}, "[5]": {"target": "T2, ASIC3 (acid-sensing) (Homo sapiens, UniProt Q9UHC3)", "T2 construct": "expressed in transfected cells", "T2 sequence (Q9UHC3 1-531)": "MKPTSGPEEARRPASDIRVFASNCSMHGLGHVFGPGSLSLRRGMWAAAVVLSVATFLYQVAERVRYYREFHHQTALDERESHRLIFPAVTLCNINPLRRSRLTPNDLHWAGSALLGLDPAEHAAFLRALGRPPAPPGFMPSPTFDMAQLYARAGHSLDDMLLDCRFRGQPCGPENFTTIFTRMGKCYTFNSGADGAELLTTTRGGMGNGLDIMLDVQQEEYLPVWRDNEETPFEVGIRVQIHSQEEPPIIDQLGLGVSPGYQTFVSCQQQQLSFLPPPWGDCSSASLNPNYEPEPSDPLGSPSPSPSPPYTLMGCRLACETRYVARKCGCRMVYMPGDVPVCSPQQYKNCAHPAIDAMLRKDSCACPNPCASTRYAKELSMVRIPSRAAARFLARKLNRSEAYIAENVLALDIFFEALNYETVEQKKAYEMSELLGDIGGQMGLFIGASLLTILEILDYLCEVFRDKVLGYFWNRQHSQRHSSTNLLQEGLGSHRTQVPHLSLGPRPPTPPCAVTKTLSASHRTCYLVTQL", "assay": "Patch-clamp in transfected cells, ASIC3", "type": "cell-based", "conditions": "DAPA-2-5 at 5 μM; positive control amiloride"}, "[6]": {"tested_on": "isolated normal mouse vagus", "assay": "Capsaicin-induced depolarization of isolated vagus nerve, wild type", "protocol": "To examine the ability of DAPA-2-5 to suppress sensory discomfort, it was tested in an animal model developed at the Imperial College, London, U.K. [Birrell et al. TRPA1 agonists evoke coughing in guinea pig and human volunteers. Amer. J. Respiratory and Critical Care Medicine 180, 1042-7, 2009; Patel et al., Inhibition of guinea-pig and human sensory nerve activity and the cough reflex in guinea-pigs by cannabinoid (CB2) receptor activation. British J. Pharmacol. 140, 261-8 2003]. In this in vitro assay, segments of the vagus nerve are placed on a platform and the electrical activity is recorded after topical application of capsaicin. Capsaicin is a known irritant that elicits pain when it is applied to the skin and it will depolarize the isolated vagus. The ability of substances to inhibit this capsaicin-induced depolarization is measured.\nBriefly, segments of vagus nerve, caudal to the nodose ganglion, were removed from mice with fine forceps and segments placed in oxygenated Krebs solution and bubbled with 95% O2/5% CO2. The desheathed nerve trunk was mounted in a ‘grease-gap’ recording chamber and constantly superfused with Krebs solution with a flow rate of approximately 2 mL/min, and the electrical activity of the nerve monitored with electrodes. The temperature of the perfusate was kept constant at 37° C. by a water bath. […]"}, "[7]": {"tested_on": "throat, airway and chest discomfort", "assay": "Case studies with DAPA-2-5 tablets in human subjects", "type": "in vivo", "conditions": "for precipitation of “ice cream headache” (Case Study 5): ODT-A 2 mg"}, "[8]": {"tested_on": "mouth and throat", "assay": "Sensory activity of ODT-C on volunteers (double-blind, modified ASHRAE scale)", "type": "in vivo, human", "conditions": "doses higher than 1.5 mg"}, "[9]": {"conditions": "male rats, 30 mg/kg subcutaneously daily for 7 days"}}, "data": [{"smiles": "CCCCCP(=O)(C(C)CC)C(C)CC", "note": "(stereo not shown) [DAPA-2-5, 1-Di(sec-butyl)-phosphinoyl-pentane]", "values": [{"measurement": "mutagenic in the Ames test", "setting": "[1]", "result": "Neither of these compounds was mutagenic"}, {"measurement": "difference in organ weights or histology vs vehicle", "setting": "[2]; male rats, via drinking water, averaged intake 41 mg/kg body weight/day for 40 days", "result": "no statistical difference"}, {"measurement": "difference in organ weights or histology vs vehicle", "setting": "[2]; rats, 20 mg/kg perioral by gavage for 7 days", "result": "no statistical difference"}, {"measurement": "DAPA-2-5 recovered from the aqueous phase", "setting": "[3]", "result": "86±2", "unit": "%"}, {"measurement": "times less potent than DAPA-2-6 in stimulating TRPV1", "setting": "[4]", "result": 54}, {"measurement": "agonist or antagonist activity, ASIC3", "setting": "[5]", "result": "No agonist or antagonist activities"}, {"measurement": "depolarization evoked by the compound itself", "setting": "[6]", "result": "did not evoke depolarization"}, {"measurement": "inhibition at 1000 µg/mL", "setting": "[6]; Mus musculus, 10 min, 1 mg/mL for 10 min, capsaicin 1 μM, read-out: per cent inhibition of capsaicin-induced depolarization", "result": "~60", "unit": "%"}, {"measurement": "effective in reducing throat discomfort (Case Study 7)", "setting": "[7]; ODT-A 1.0 mg as needed, six women", "result": 100, "unit": "%"}, {"measurement": "hoarseness and loss of voice (Case Study 6)", "setting": "[7]; ODT-A 1 mg, twenty trials", "result": "immediate relief from throat discomfort"}, {"measurement": "choking and gagging in asthma (Case Study 4)", "setting": "[7]; ODT-A 1 mg, two subjects", "result": "effective in controlling choking and gagging"}, {"measurement": "cough in cough variant asthma (Case Study 4)", "setting": "[7]; ODT-A 1.5 mg, two or three tablets at a time, after a week's trial", "result": "completely under control"}, {"measurement": "precipitation of “ice cream headache” (Case Study 5)", "setting": "[7]", "result": "Neither of the ODT precipitated a headache response"}, {"measurement": "relief of hoarseness (Case Study 1)", "setting": "[7]; ODT-A, 1 to 1.5 mg, person, five occasions", "result": "fully effective in relieving their hoarseness"}, {"measurement": "time to disappearance of chest discomfort (Case Study 8, second person)", "setting": "[7]; four tablets with water", "result": "about 10 min"}, {"measurement": "snoring (Case Study 9)", "setting": "[7]; tablets 2 mg before sleep", "result": "stopped snoring"}, {"measurement": "time to relief of chest discomfort (Case Study 8)", "setting": "[7]; three tablets, each 1.5 mg", "result": "≤ 5", "unit": "min"}, {"measurement": "hiccups (Case Study 5)", "setting": "[7]; two DAPA-2-5 ODT", "result": "stopped within several min"}, {"measurement": "throat discomfort from acid reflux (Case Study 5)", "setting": "[7]; two DAPA-2-5 ODT", "result": "immediately controlled their throat discomfort from acid reflux"}, {"measurement": "nasal congestion (Case Study 2)", "setting": "[7]; two tablets of 1 mg or one of 1.5 mg, with viral cold", "result": "effective remedy"}, {"measurement": "ODT-C test results at higher doses", "setting": "[8]", "result": "higher than 1.5 mg “penetrating cold” sensations."}]}, {"smiles": "CCCCCCCP(=O)(C(C)CC)C(C)CC", "note": "(stereo not shown) [DAPA-2-7, 1-Di(sec-butyl) phosphinoyl-heptane]", "values": [{"measurement": "mutagenic in the Ames test", "setting": "[1]", "result": "Neither of these compounds was mutagenic"}, {"measurement": "differences in body or organ weights vs vehicle", "setting": "[2]; [9]", "result": "no significant differences"}, {"measurement": "heart and liver histology", "setting": "[2]; [9]", "result": "normal"}, {"measurement": "precipitation of “ice cream headache” (Case Study 5)", "setting": "[7]", "result": "Neither of the ODT precipitated a headache response"}]}]}
